#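 Interpolation was linear, between the two tested concentrations surrounding the appropriate level; five concentrations were tested over 48 hours in 96-well plates. At the TGI there is no net growth.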
# Columns and labels:
# Experiment in all cases: NCI tumour cell line growth inhibition, 48 h
# CAKI-1 renal = tested on: CAKI-1 renal
# CCRF-CEM leukemia = tested on: CCRF-CEM leukemia
# DU-145 prostate = tested on: DU-145 prostate
# HCT-116 colon = tested on: HCT-116 colon
# HL-60(TB) leukemia = tested on: HL-60(TB) leukemia
# MCF7 breast = tested on: MCF7 breast
# MDA-MB-231 breast = tested on: MDA-MB-231 breast
# MDA-MB-435 = tested on: MDA-MB-435
# NCI-H522 lung = tested on: NCI-H522 lung
# OVCAR-3 ovarian = tested on: OVCAR-3 ovarian
# PC-3 prostate = tested on: PC-3 prostate
# SF-295 CNS = tested on: SF-295 CNS
# SK-MEL-2 melanoma = tested on: SK-MEL-2 melanoma
# SK-MEL-28 melanoma = tested on: SK-MEL-28 melanoma
# SK-MEL-5 melanoma = tested on: SK-MEL-5 melanoma
# SN12C renal = tested on: SN12C renal
# SW-620 colon = tested on: SW-620 colon
# TK-10 renal = tested on: TK-10 renal
# HCC-2998 colon = tested on: HCC-2998 colon
# T-47D breast = tested on: T-47D breast
smiles,measurement,setting,value
CCN(CC)CCCOc1cc2c(cc1OC)C(=O)N1CCC[C@H]1C=N2,TGI,CAKI-1 renal,44.3 µM
same,TGI,CCRF-CEM leukemia,87.5 µM
same,TGI,DU-145 prostate,> 100 µM
same,TGI,HCT-116 colon,> 100 µM
same,TGI,HL-60(TB) leukemia,> 100 µM
same,TGI,MCF7 breast,> 100 µM
same,TGI,MDA-MB-231 breast,> 100 µM
same,TGI,MDA-MB-435,59.6 µM
same,TGI,NCI-H522 lung,54 µM
same,TGI,OVCAR-3 ovarian,50 µM
same,TGI,PC-3 prostate,> 100 µM
same,TGI,SF-295 CNS,75.5 µM
same,TGI,SK-MEL-2 melanoma,> 100 µM
same,TGI,SK-MEL-28 melanoma,45.9 µM
same,TGI,SK-MEL-5 melanoma,63.7 µM
same,TGI,SN12C renal,> 100 µM
same,TGI,SW-620 colon,33.2 µM
same,TGI,TK-10 renal,> 100 µM
CC(C)C1CC[C@H](C)C[C@@H]1OC(=O)C(C(=O)O[C@H]1C[C@@H](C)CCC1C(C)C)C(O)[C@@H]1OC(C)(C)O[C@H]1C1COC(C)(C)O1 (stereo partly drawn),TGI,CAKI-1 renal,34.6 µM
same,TGI,CCRF-CEM leukemia,50.2 µM
same,TGI,DU-145 prostate,44.5 µM
same,TGI,HCC-2998 colon,26.7 µM
same,TGI,HCT-116 colon,23.9 µM
same,TGI,HL-60(TB) leukemia,42.2 µM
same,TGI,MCF7 breast,22.6 µM
same,TGI,MDA-MB-231 breast,36.2 µM
same,TGI,MDA-MB-435,32 µM
same,TGI,NCI-H522 lung,3.95 µM
same,TGI,OVCAR-3 ovarian,36.2 µM
same,TGI,SF-295 CNS,32.6 µM
same,TGI,SK-MEL-2 melanoma,38.2 µM
same,TGI,SK-MEL-28 melanoma,35.4 µM
same,TGI,SK-MEL-5 melanoma,29.2 µM
same,TGI,SN12C renal,30 µM
same,TGI,SW-620 colon,35.7 µM
same,TGI,T-47D breast,32.3 µM
same,TGI,TK-10 renal,37.1 µM
COc1ccc(/C=N/NC(=O)c2cnc3[nH]c(=O)n(C)c(=O)c3c2)cc1,TGI,CAKI-1 renal,> 100 µM
same,TGI,CCRF-CEM leukemia,> 100 µM
same,TGI,DU-145 prostate,> 100 µM
same,TGI,HCC-2998 colon,> 100 µM
same,TGI,HCT-116 colon,> 100 µM
same,TGI,MCF7 breast,> 100 µM
same,TGI,MDA-MB-231 breast,86.8 µM
same,TGI,MDA-MB-435,> 100 µM
same,TGI,OVCAR-3 ovarian,> 100 µM
same,TGI,PC-3 prostate,> 100 µM
same,TGI,SF-295 CNS,> 100 µM
same,TGI,SK-MEL-2 melanoma,> 100 µM
same,TGI,SK-MEL-28 melanoma,> 100 µM
same,TGI,SK-MEL-5 melanoma,> 100 µM
same,TGI,SN12C renal,> 100 µM
same,TGI,SW-620 colon,> 100 µM
same,TGI,T-47D breast,> 100 µM
same,TGI,TK-10 renal,> 100 µM
O=C(N/N=C\c1ccccc1)Nc1cccc2ccccc12,TGI,CAKI-1 renal,> 100 µM
same,TGI,CCRF-CEM leukemia,> 100 µM
same,TGI,DU-145 prostate,> 100 µM
same,TGI,HCC-2998 colon,> 100 µM
same,TGI,HCT-116 colon,> 100 µM
same,TGI,HL-60(TB) leukemia,> 100 µM
same,TGI,MDA-MB-231 breast,> 100 µM
same,TGI,MDA-MB-435,> 100 µM
same,TGI,NCI-H522 lung,> 100 µM
same,TGI,OVCAR-3 ovarian,> 100 µM
same,TGI,PC-3 prostate,86.5 µM
same,TGI,SF-295 CNS,77.1 µM
same,TGI,SK-MEL-2 melanoma,95.3 µM
same,TGI,SK-MEL-28 melanoma,51.5 µM
same,TGI,SK-MEL-5 melanoma,24.4 µM
same,TGI,SN12C renal,45.9 µM
same,TGI,SW-620 colon,> 100 µM
same,TGI,T-47D breast,48.2 µM
same,TGI,TK-10 renal,> 100 µM
CCOC(=O)C(C(=O)OCC)=C1NC2(c3ccccc3Nc3ccc(C)cc32)C(C(=O)OC)S1 (stereo not drawn),TGI,CAKI-1 renal,> 100 µM
same,TGI,CCRF-CEM leukemia,> 100 µM
same,TGI,DU-145 prostate,> 100 µM
same,TGI,HCC-2998 colon,> 100 µM
same,TGI,HCT-116 colon,> 100 µM
same,TGI,HL-60(TB) leukemia,> 100 µM
same,TGI,MCF7 breast,> 100 µM
same,TGI,MDA-MB-435,> 100 µM
same,TGI,NCI-H522 lung,> 100 µM
same,TGI,OVCAR-3 ovarian,> 100 µM
same,TGI,PC-3 prostate,> 100 µM
same,TGI,SF-295 CNS,> 100 µM
same,TGI,SK-MEL-2 melanoma,63.1 µM
same,TGI,SK-MEL-28 melanoma,> 100 µM
same,TGI,SK-MEL-5 melanoma,66.9 µM
same,TGI,SN12C renal,18.2 µM
same,TGI,SW-620 colon,> 100 µM
same,TGI,T-47D breast,67.2 µM
same,TGI,TK-10 renal,> 100 µM
O=C1c2ccccc2C(=O)c2c(O)ccc(O)c21,TGI,CAKI-1 renal,> 100 µM
same,TGI,CCRF-CEM leukemia,> 100 µM
same,TGI,HCC-2998 colon,> 100 µM
same,TGI,HCT-116 colon,> 100 µM
same,TGI,HL-60(TB) leukemia,> 100 µM
same,TGI,NCI-H522 lung,> 100 µM
same,TGI,OVCAR-3 ovarian,94.1 µM
same,TGI,SF-295 CNS,> 100 µM
same,TGI,SK-MEL-2 melanoma,> 100 µM
same,TGI,SK-MEL-28 melanoma,> 100 µM
same,TGI,SK-MEL-5 melanoma,> 100 µM
same,TGI,SN12C renal,> 100 µM
same,TGI,SW-620 colon,> 100 µM
same,TGI,TK-10 renal,> 100 µM
CC(=O)/C=C(\O)c1[nH]c(C(=O)O)cc1C1CCN(Cc2ccccc2)C1=O (stereo not drawn),TGI,CAKI-1 renal,> 100 µM
same,TGI,DU-145 prostate,59.2 µM
same,TGI,HCC-2998 colon,46.4 µM
same,TGI,HCT-116 colon,61.7 µM
same,TGI,MCF7 breast,65.7 µM
same,TGI,MDA-MB-231 breast,> 100 µM
same,TGI,MDA-MB-435,> 100 µM
same,TGI,NCI-H522 lung,49.7 µM
same,TGI,OVCAR-3 ovarian,54.9 µM
same,TGI,PC-3 prostate,> 100 µM
same,TGI,SF-295 CNS,48.7 µM
same,TGI,SK-MEL-2 melanoma,54.9 µM
same,TGI,SK-MEL-28 melanoma,43.8 µM
same,TGI,SK-MEL-5 melanoma,42.9 µM
same,TGI,SW-620 colon,> 100 µM
same,TGI,T-47D breast,49.8 µM
same,TGI,TK-10 renal,> 100 µM
Clc1c(C(Cl)(Cl)Cl)nsc1N1CCCCC1,TGI,CAKI-1 renal,55.2 µM
same,TGI,CCRF-CEM leukemia,40.5 µM
same,TGI,DU-145 prostate,> 100 µM
same,TGI,HCC-2998 colon,47.9 µM
same,TGI,HCT-116 colon,76.6 µM
same,TGI,HL-60(TB) leukemia,48.2 µM
same,TGI,MCF7 breast,69.3 µM
same,TGI,MDA-MB-231 breast,77.5 µM
same,TGI,MDA-MB-435,66.1 µM
same,TGI,OVCAR-3 ovarian,56.9 µM
same,TGI,PC-3 prostate,95.3 µM
same,TGI,SF-295 CNS,66.8 µM
same,TGI,SK-MEL-28 melanoma,> 100 µM
same,TGI,SK-MEL-5 melanoma,29.6 µM
same,TGI,SN12C renal,80.9 µM
same,TGI,SW-620 colon,> 100 µM
same,TGI,TK-10 renal,> 100 µM
CC(C)(C)c1ccc(C(C)(C)C)c(N2C(=O)C3ON=C(c4ccc([N+](=O)[O-])cc4)C3C2=O)c1 (stereo not drawn),TGI,CAKI-1 renal,> 25 µM
same,TGI,CCRF-CEM leukemia,> 25 µM
same,TGI,DU-145 prostate,> 25 µM
same,TGI,HCC-2998 colon,> 25 µM
same,TGI,HCT-116 colon,> 25 µM
same,TGI,HL-60(TB) leukemia,> 25 µM
same,TGI,MCF7 breast,> 25 µM
same,TGI,MDA-MB-435,> 25 µM
same,TGI,NCI-H522 lung,> 25 µM
same,TGI,OVCAR-3 ovarian,> 25 µM
same,TGI,SF-295 CNS,> 25 µM
same,TGI,SK-MEL-28 melanoma,> 25 µM
same,TGI,SK-MEL-5 melanoma,> 25 µM
same,TGI,SN12C renal,> 25 µM
same,TGI,SW-620 colon,> 25 µM
same,TGI,T-47D breast,> 25 µM
same,TGI,TK-10 renal,> 25 µM
c1ccc(N=C2SC3=NCCN3C2=Nc2ccccc2)cc1,TGI,CAKI-1 renal,38.2 µM
same,TGI,CCRF-CEM leukemia,11.8 µM
same,TGI,DU-145 prostate,28.8 µM
same,TGI,HCC-2998 colon,52.4 µM
same,TGI,HCT-116 colon,26.8 µM
same,TGI,MCF7 breast,24.9 µM
same,TGI,MDA-MB-231 breast,60.5 µM
same,TGI,MDA-MB-435,43 µM
same,TGI,NCI-H522 lung,30.4 µM
same,TGI,OVCAR-3 ovarian,36 µM
same,TGI,PC-3 prostate,60.6 µM
same,TGI,SF-295 CNS,41.7 µM
same,TGI,SK-MEL-2 melanoma,76.5 µM
same,TGI,SK-MEL-28 melanoma,35 µM
same,TGI,SK-MEL-5 melanoma,28.9 µM
same,TGI,SN12C renal,70 µM
same,TGI,T-47D breast,44.4 µM
CC(C)OC(=O)[C@@H](O)[C@H](CO)C1=CC([Si](C)(C)c2ccccc2)=CON1,TGI,CAKI-1 renal,> 100 µM
same,TGI,DU-145 prostate,> 100 µM
same,TGI,HCC-2998 colon,> 100 µM
same,TGI,HCT-116 colon,> 100 µM
same,TGI,MCF7 breast,> 100 µM
same,TGI,MDA-MB-231 breast,> 100 µM
same,TGI,MDA-MB-435,> 100 µM
same,TGI,OVCAR-3 ovarian,> 100 µM
same,TGI,PC-3 prostate,> 100 µM
same,TGI,SF-295 CNS,> 100 µM
same,TGI,SK-MEL-2 melanoma,> 100 µM
same,TGI,SK-MEL-28 melanoma,> 100 µM
same,TGI,SK-MEL-5 melanoma,> 100 µM
same,TGI,SW-620 colon,> 100 µM
same,TGI,T-47D breast,> 100 µM
same,TGI,TK-10 renal,> 100 µM
NC1(C(=O)O)CCCC1,TGI,CAKI-1 renal,> 625 µM
same,TGI,CCRF-CEM leukemia,> 625 µM
same,TGI,HCC-2998 colon,> 625 µM
same,TGI,HCT-116 colon,> 625 µM
same,TGI,HL-60(TB) leukemia,> 625 µM
same,TGI,MCF7 breast,> 625 µM
same,TGI,NCI-H522 lung,> 625 µM
same,TGI,OVCAR-3 ovarian,> 62.5 µM
same,TGI,SF-295 CNS,> 625 µM
same,TGI,SK-MEL-2 melanoma,> 625 µM
same,TGI,SK-MEL-28 melanoma,> 625 µM
same,TGI,SK-MEL-5 melanoma,> 625 µM
same,TGI,SN12C renal,> 625 µM
same,TGI,SW-620 colon,> 625 µM
O=C1ON=C2C3CC4CC12CC1(C3)C(=O)ON=C41,TGI,CAKI-1 renal,> 100 µM
same,TGI,CCRF-CEM leukemia,> 100 µM
same,TGI,DU-145 prostate,> 100 µM
same,TGI,HCC-2998 colon,> 100 µM
same,TGI,HCT-116 colon,> 100 µM
same,TGI,HL-60(TB) leukemia,> 100 µM
same,TGI,MCF7 breast,> 100 µM
same,TGI,MDA-MB-231 breast,> 100 µM
same,TGI,MDA-MB-435,> 100 µM
same,TGI,NCI-H522 lung,> 100 µM
same,TGI,OVCAR-3 ovarian,> 100 µM
same,TGI,PC-3 prostate,> 100 µM
same,TGI,SF-295 CNS,> 100 µM
same,TGI,SK-MEL-2 melanoma,> 100 µM
same,TGI,SK-MEL-28 melanoma,> 100 µM
same,TGI,SK-MEL-5 melanoma,> 100 µM
same,TGI,SN12C renal,> 100 µM
same,TGI,SW-620 colon,> 100 µM

# — PubChem BioAssay (NCI)
